From ChEMBL document CHEMBL3352567, “Radiosynthesis and ex vivo evaluation of [(18)F]-(S)-3-(6-(3-fluoropropoxy)benzo[d]isoxazol-3-yl)-5-(methoxymethyl)oxazolidin-2-one for imaging MAO-B with PET” (Bioorg Med Chem Lett, 2015) come the findings set out here.

One may read the IC50 as the concentration needed to halve the response being measured. In general, logD refers to the decadic logarithm of the distribution of all forms, ionised or not, between an organic phase and buffer at a given pH. The low end stands for lower lipophilicity, the high end for higher lipophilicity.

In data set [1] the target is T1, Amine oxidase [flavin-containing] B (Homo sapiens, UniProt P27338).
T1 sequence (P27338 whole entry): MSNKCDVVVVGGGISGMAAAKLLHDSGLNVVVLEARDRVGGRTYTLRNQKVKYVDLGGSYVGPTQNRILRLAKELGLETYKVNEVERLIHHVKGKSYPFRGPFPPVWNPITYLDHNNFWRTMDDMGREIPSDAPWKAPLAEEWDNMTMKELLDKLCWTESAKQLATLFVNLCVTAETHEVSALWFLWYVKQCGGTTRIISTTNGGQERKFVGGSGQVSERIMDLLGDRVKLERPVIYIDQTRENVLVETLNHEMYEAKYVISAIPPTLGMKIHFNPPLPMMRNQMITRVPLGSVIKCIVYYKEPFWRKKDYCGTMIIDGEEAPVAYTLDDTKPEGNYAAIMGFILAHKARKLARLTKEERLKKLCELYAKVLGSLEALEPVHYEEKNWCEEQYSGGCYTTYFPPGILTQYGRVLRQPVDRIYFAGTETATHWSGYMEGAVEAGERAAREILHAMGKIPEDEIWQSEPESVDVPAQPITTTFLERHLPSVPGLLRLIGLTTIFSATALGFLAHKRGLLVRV
Nature of the data set: Inhibition of human recombinant MAO-B by luminescence analysis.

The nature of data set [2]: n-Octanol-phosphate buffered saline distribution coefficient, log D of the compound at pH 7.4 by shake flask method. It is filed as physicochemical.
Data set [3] is filed under the species Homo sapiens. Put plainly: Selectivity index, ratio of IC50 for human recombinant MAO-B to IC50 for human recombinant MAO-A.
Data set [4] has as its system Cerebellum. Put plainly: Drug uptake in conscious Sprague-Dawley rat cerebellum at < 10 nmol/kg, tail-vein injections at 2 mins. Format: ADME, tissue-based. The following applies: in vivo, iv.
Data set [5] relates to Brain. Nature of the data set: Drug uptake in conscious Sprague-Dawley rat brain region at < 10 nmol/kg, tail-vein injections at 2 mins. Particulars: in vivo, iv. Format: ADME, tissue-based.
In data set [6] the test system is Brain. Put plainly: Drug uptake in conscious Sprague-Dawley rat brain region at < 10 nmol/kg, tail-vein injections at 40 mins in presence of 2 mg/kg, ip L-deprenyl inhibitor for 1 hr. Format: ADME, organism-based. Set-up: dose 2 mg/kg, route intraperitoneal. The following applies: in vivo.
Data set [7] is described as follows: Plasma concentration in conscious Sprague-Dawley rat plasma assessed as radiotracer at < 10 nmol/kg, tail-vein injections at 40 mins. It is filed as ADME, cell-free. Particulars: iv, read-out: Stability.
For data set [8], the system named is Striatum. Nature of the data set: Drug uptake in conscious Sprague-Dawley rat striatum at < 10 nmol/kg, tail-vein injections at 15 mins in presence of 2 mg/kg, ip L-deprenyl inhibitor for 1 hr. Format: ADME, organism-based. Set-up: dose 2 mg/kg, route intraperitoneal. The following applies: in vivo, 0.25 h.
Data set [9] relates to Brain. Put plainly: Drug uptake in conscious Sprague-Dawley rat brain region at < 10 nmol/kg, tail-vein injections at 15 mins. Particulars: in vivo, iv, 0.25 h. Format: ADME, tissue-based.
The subject of data set [10] is Cortex. Put plainly: Drug uptake in conscious Sprague-Dawley rat cortex at < 10 nmol/kg, tail-vein injections at 40 mins. Format: ADME, tissue-based. Particulars: in vivo, iv.
Data set [11] concerns Brain. Nature of the data set: Drug uptake in conscious Sprague-Dawley rat brain region at < 10 nmol/kg, tail-vein injections at 15 mins in presence of 2 mg/kg, ip L-deprenyl inhibitor for 1 hr. Set-up: dose 2 mg/kg, route intraperitoneal. The following applies: in vivo, 0.25 h. Format: ADME, organism-based.
Data set [12] relates to Cerebellum. Nature of the data set: Drug uptake in conscious Sprague-Dawley rat cerebellum at < 10 nmol/kg, tail-vein injections at 15 mins in presence of 2 mg/kg, ip L-deprenyl inhibitor for 1 hr. It is filed as ADME, organism-based. Set-up: dose 2 mg/kg, route intraperitoneal. The following applies: in vivo, 0.25 h.
Data set [13] concerns Brain. Nature of the data set: Drug uptake in conscious Sprague-Dawley rat brain region at < 10 nmol/kg, tail-vein injections at 40 mins. Format: ADME, tissue-based. Particulars: in vivo, iv.
Data set [14] deals with Cortex. Nature of the data set: Drug uptake in conscious Sprague-Dawley rat cortex at < 10 nmol/kg, tail-vein injections at 2 mins. It is filed as ADME, tissue-based. Particulars: in vivo, iv.
In data set [15] the test system is Bone. Put plainly: Drug metabolism in conscious Sprague-Dawley rat bone assessed as parent drug level at < 10 nmol/kg, tail-vein injections at 40 mins. Format: ADME, tissue-based, Bone element. Particulars: in vivo, iv.
The test system of data set [16] is Cerebellum. Nature of the data set: Drug uptake in conscious Sprague-Dawley rat cerebellum at < 10 nmol/kg, tail-vein injections at 15 mins. It is filed as ADME, tissue-based. The following applies: in vivo, iv, 0.25 h.
Data set [17] concerns Striatum. Nature of the data set: Drug uptake in conscious Sprague-Dawley rat striatum at < 10 nmol/kg, tail-vein injections at 40 mins in presence of 2 mg/kg, ip L-deprenyl inhibitor for 1 hr. It is filed as ADME, organism-based. Set-up: dose 2 mg/kg, route intraperitoneal. Particulars: in vivo.
The test system of data set [18] is Cerebellum. Nature of the data set: Drug uptake in conscious Sprague-Dawley rat cerebellum at < 10 nmol/kg, tail-vein injections at 40 mins in presence of 2 mg/kg, ip L-deprenyl inhibitor for 1 hr. Format: ADME, organism-based. Set-up: dose 2 mg/kg, route intraperitoneal. The following applies: in vivo.
For data set [19], the system named is Bone. Nature of the data set: Drug metabolism in conscious Sprague-Dawley rat bone assessed as parent drug level at < 10 nmol/kg, tail-vein injections at 2 mins. Particulars: in vivo, iv. Format: ADME, tissue-based, Bone element.
Data set [20] has as its system Cerebellum. Nature of the data set: Drug uptake in conscious Sprague-Dawley rat cerebellum at < 10 nmol/kg, tail-vein injections at 40 mins. Particulars: in vivo, iv. Format: ADME, tissue-based.
Data set [21] has as its system Cortex. Put plainly: Drug uptake in conscious Sprague-Dawley rat cortex at < 10 nmol/kg, tail-vein injections at 15 mins. Format: ADME, tissue-based. The following applies: in vivo, iv, 0.25 h.
For data set [22], the system named is Cortex. Nature of the data set: Drug uptake in conscious Sprague-Dawley rat cortex at < 10 nmol/kg, tail-vein injections at 15 mins in presence of 2 mg/kg, ip L-deprenyl inhibitor for 1 hr. Format: ADME, organism-based. Set-up: dose 2 mg/kg, route intraperitoneal. Particulars: in vivo, 0.25 h.
The subject of data set [23] is Striatum. Nature of the data set: Drug uptake in conscious Sprague-Dawley rat striatum at < 10 nmol/kg, tail-vein injections at 40 mins. The following applies: in vivo, iv. Format: ADME, tissue-based.
Data set [24] in a line: Plasma concentration in conscious Sprague-Dawley rat plasma assessed as radiotracer at < 10 nmol/kg, tail-vein injections at 2 mins. Format: ADME. The following applies: iv, read-out: Stability.
The test system of data set [25] is Cortex. Put plainly: Drug uptake in conscious Sprague-Dawley rat cortex at < 10 nmol/kg, tail-vein injections at 40 mins in presence of 2 mg/kg, ip L-deprenyl inhibitor for 1 hr. It is filed as ADME, organism-based. Set-up: dose 2 mg/kg, route intraperitoneal. Particulars: in vivo.
Data set [26] concerns Striatum. Put plainly: Drug uptake in conscious Sprague-Dawley rat striatum at < 10 nmol/kg, tail-vein injections at 15 mins. Format: ADME, tissue-based. Particulars: in vivo, iv, 0.25 h.
Data set [27] has as its system Striatum. Nature of the data set: Drug uptake in conscious Sprague-Dawley rat striatum at < 10 nmol/kg, tail-vein injections at 2 mins. Particulars: in vivo, iv. It is filed as ADME, tissue-based.

On to `COC[C@@H]1CN(c2noc3cc(OCCCC(F)(F)F)ccc23)C(=O)O1`, for which the IC50 in data set [1] amounted to 47 nM. In [2], this compound gave a logD of 3.34. The Ratio IC50 in data set [3] was 4680.
As for `COC[C@@H]1CN(c2noc3cc(OCCC[18F])ccc23)C(=O)O1`, the SUV in [4] amounted to 1.7; in data set [5], 1.7; in data set [6] it was 0.2; in data set [8], 0.5; in data set [9], 0.51; in data set [10], 0.19. Further, the SUV in [11] is listed as 0.5; in [12] it was 0.5; in data set [13], 0.19; in [14], 1.7; in [15] it was 3.1; in data set [16], 0.51. Further, the SUV was determined as 0.2 in data set [17]; 0.2 in data set [18]; 0.45 in data set [19]; 0.19 in data set [20]; 0.51 in data set [21]; 0.5 in [22]. For the same compound, the SUV in [23] is on record as 0.19; in data set [25], 0.2; in [26] it was 0.51; in [27], 1.7. Besides, the remaining at 40 min in [7] was found to be 33%. Besides, the remaining at 2 min in [24] turned out to be 90%.
As for `COC[C@@H]1CN(c2noc3cc(OCCCCCF)ccc23)C(=O)O1`, the IC50 in data set [1] was found to be 110 nM. In addition, in data set [3], the Ratio IC50 was determined as 7730.
As for `COC[C@@H]1CN(c2noc3cc(OCCCF)ccc23)C(=O)O1`, the IC50 in data set [1] came to 330 nM. Moreover, in data set [2], the logD amounted to 2.6. In addition, the Ratio IC50 in data set [3] amounted to 6.
As to `COC[C@@H]1CN(c2noc3cc(OCCCCF)ccc23)C(=O)O1`, in data set [1], the IC50 came out at 120 nM. Further, the Ratio IC50 in data set [3] is 54.
